Measured values reported in publication PMC11873939, “Target Identification with Live-Cell Photoaffinity Labeling and Mechanism of Action Elucidation of ARN23765, a Highly Potent CFTR Corrector” (Journal of Medicinal Chemistry, 2025).

What was measured:
F508del/R1070W-CFTR [1] = target: T1, F508del/R1070W-CFTR (Homo sapiens, UniProt P13569, DEL508-508/R1070W); assay: Protein maturation assay (WB, band C/(C+B)) in transfected HEK293 cells; format: cell-based; settings: HEK293, 24 h; ARN23765 10 nM, VX-661 3 μM
T1 construct: CFTR identification in pull-down studies and analysis of full-length CFTR in protein maturation assays; expressed in transfected cells; host or cells: HEK293 (transient)
Procedure: HEK293 cells were plated in 24-wells at around 80% of confluence and transfected with constructs coding for F508del-CFTR or mutants using JetPEI reagent (101000053, Polyplus Technology) following the manufacturer’s instructions. After 24 h, the correctors were added for a further 24 h. […] For binding site analysis experiments, the cells were kept either at 37 °C (Figure S8) or moved to 30 °C (Figure 9) during incubation with the selected correctors. VX-445 and corrector 3151 were mixed together as a control for maximal protein correction. DMSO (0.2%) was added to nontreated controls. After treatment, cells were lysed in RIPA buffer [50 mM tris-HCl pH 8, 150 mM NaCl, 1% NP40, 0.5% sodium deoxycolate, 0.1% SDS, 2.0 mM EDTA] and lysates were analyzed with WB, as described in the supplementary methods of the Supporting Information.

F508del/R1070W-CFTR [2] = target: T1, F508del/R1070W-CFTR; assay: FLIPR membrane potential assay of CFTR channel activity in transfected HEK293 cells; format: cell-based; settings: HEK293, 24 h; ARN23765 10 nM, VX-661 3 μM
Procedure: HS-YFP-based assay for CFTR activity
Twenty-four hours after seeding on 96-well plates, CFBE41o- cells stably over-expressing F508del-CFTR and the HS-YFP were treated with test compounds at different concentrations in the 3 nM-10 µM range.1 Cells treated with vehicle alone (DMSO) and with ARN23765, respectively, served as negative and positive controls. The following day, cells were washed with PBS containing (in mM) 137 NaCl, 2.7 KCl, 8.1 Na2HPO4, 1.5 KH2PO4, 1.0 CaCl2, and 0.5 MgCl2. Cells were then incubated for 25 min with […] of PBS plus forskolin (20 µM) and VX-770 (1 µM) to maximally stimulate F508del-CFTR. Cells were then transferred to a microplate reader (FluoStar Galaxy; BMG Labtech, Offenburg, Germany) for CFTR activity determination. The plate reader was equipped with high-quality excitation (HQ500/20X: 500 ± 10 nm) and emission (HQ535/30M: 535 ± 15 nm) filters for YFP (Chroma Technology). Each assay comprised a continuous 14 s fluorescence reading, 2 s before and 12 s after injection of […] of an iodide-containing solution (PBS with Cl- replaced by I-; final I- concentration […]). Data were normalized to the initial background-subtracted fluorescence. […]
Cell lysates or eluates from pull-down experiments were resolved by SDS-PAGE on 4-8 % tris-acetate gels (EA0378BOX, Life technologies) and were transferred into PVDF membranes (Immobilion-E IEVH00005, Millipore). […] Images were acquired with Chemidoc MP (BIO-RAD laboratories) and quantified with Image J software.
CFTR Channel function analysis by fluorometric imaging plate reader functional (FLIPR) assay FLIPR assay was performed as previously described.3 Briefly, HEK293 cells were seeded in 96-well plates (black, flat bottom, Corning) and transfected with mutated CFTR constructs. […]
µM) for 24 h at 30 °C or 37 °C. […] The plate was then read in a fluorescence plate reader (SpectraMax i3, Molecular Devices) at 37 °C (excitation: 530 nm, emission: 560 nm). […] CFTR-mediated depolarization was detected as an increase in fluorescence. […] The peak changes in fluorescence were normalized to fluorescence immediately […]

T1 sequence (P13569 with tags, fused parts or gaps DEL508-508/R1070W): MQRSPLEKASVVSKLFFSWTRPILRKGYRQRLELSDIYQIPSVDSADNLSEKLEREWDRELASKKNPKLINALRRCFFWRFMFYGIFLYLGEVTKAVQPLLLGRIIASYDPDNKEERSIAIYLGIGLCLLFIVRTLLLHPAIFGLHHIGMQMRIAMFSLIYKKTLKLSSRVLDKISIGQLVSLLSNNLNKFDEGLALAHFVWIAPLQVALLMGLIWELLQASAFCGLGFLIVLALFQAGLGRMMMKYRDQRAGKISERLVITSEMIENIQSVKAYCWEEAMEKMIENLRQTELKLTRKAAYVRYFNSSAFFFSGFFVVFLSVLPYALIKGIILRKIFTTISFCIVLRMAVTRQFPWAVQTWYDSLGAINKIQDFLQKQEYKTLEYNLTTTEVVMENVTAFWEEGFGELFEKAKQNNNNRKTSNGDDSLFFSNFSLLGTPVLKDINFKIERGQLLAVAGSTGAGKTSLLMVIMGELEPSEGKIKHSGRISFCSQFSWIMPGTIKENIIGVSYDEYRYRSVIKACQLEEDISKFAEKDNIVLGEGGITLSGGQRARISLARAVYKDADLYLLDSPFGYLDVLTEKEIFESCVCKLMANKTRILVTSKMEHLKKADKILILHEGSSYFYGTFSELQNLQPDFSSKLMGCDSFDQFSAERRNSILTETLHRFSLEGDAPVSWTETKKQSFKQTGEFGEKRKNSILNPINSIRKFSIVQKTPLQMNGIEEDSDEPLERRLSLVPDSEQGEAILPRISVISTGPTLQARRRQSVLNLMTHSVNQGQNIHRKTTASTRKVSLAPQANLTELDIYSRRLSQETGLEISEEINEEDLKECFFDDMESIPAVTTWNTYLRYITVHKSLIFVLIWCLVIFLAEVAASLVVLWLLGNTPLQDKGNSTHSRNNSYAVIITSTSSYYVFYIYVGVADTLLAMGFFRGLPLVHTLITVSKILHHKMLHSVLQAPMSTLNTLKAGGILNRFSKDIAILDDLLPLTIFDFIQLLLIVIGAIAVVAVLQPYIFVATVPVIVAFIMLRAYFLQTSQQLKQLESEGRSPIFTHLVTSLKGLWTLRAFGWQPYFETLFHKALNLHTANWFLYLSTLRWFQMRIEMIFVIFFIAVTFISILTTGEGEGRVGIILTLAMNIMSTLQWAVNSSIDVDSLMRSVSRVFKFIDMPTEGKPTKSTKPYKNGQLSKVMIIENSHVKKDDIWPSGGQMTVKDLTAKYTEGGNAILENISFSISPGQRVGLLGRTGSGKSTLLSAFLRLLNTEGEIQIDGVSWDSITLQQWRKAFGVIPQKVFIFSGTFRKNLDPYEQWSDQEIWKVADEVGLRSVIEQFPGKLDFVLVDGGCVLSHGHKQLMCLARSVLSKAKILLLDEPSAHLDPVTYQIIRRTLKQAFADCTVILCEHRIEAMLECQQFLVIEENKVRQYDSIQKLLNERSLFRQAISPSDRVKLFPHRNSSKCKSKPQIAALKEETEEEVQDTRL

## CC(C)(CO)c1cc2cc(NC(=O)C3(c4ccc5c(c4)OC(F)(F)O5)CC3)c(F)cc2n1C[C@@H](O)CO [VX-661, tezacaftor, reference compound]
F508del/R1070W-CFTR [1]
  F508del/R1070W protein maturation: further enhanced
F508del/R1070W-CFTR [2]
  F508del/R1070W channel activity (FLIPR): further enhanced
